Broadly, the T/C is the ratio of treated to control.

For test [1], the system named is L1210. The test can be described thus: Median survival time of inhibitory activity against L1210 tumor cells in mice at the dose of 200 mg/kg. In kind it is functional, Mus musculus.
For test [2], the system named is L1210. Nature of the test: Median survival time of inhibitory activity against L1210 tumor cells in mouse at the dose of 100 mg/kg. It counts as functional.
Test [3] deals with L1210. The test can be described thus: Median survival time of inhibitory activity against L1210 tumor cells in mouse at the dose of 12.5 mg/kg. In kind it is functional.
The test system of test [4] is L1210. The test can be described thus: Median survival time of inhibitory activity against L1210 tumor cells in mouse at the dose of 25 mg/kg. In kind it is functional.
The test system of test [5] is L1210. The test can be described thus: Median survival time of inhibitory activity against L1210 tumor cells in mouse at the dose of 50 mg/kg. It counts as functional.
Test [6] deals with Mus musculus. Nature of the test: Average weight change in mouse after the treatment with 100 mg/kg dose of the compound. It counts as functional.
In test [7] the test system is Mus musculus. Nature of the test: Average weight change in mouse after the treatment with 12.5 mg/kg dose of the compound. In kind it is functional.
For test [8], the system named is Mus musculus. Nature of the test: Average weight change in mouse after the treatment with 200 mg/kg dose of the compound. It counts as functional.
The subject of test [9] is Mus musculus. Nature of the test: Average weight change in mouse after the treatment with 25 mg/kg dose of the compound. It counts as functional.
Test [10] has as its system Mus musculus. Nature of the test: Average weight change in mouse after the treatment with 50 mg/kg dose of the compound. In kind it is functional.
Test [11] relates to Mus musculus. Nature of the test: Survivors after the treatment with 100 mg/kg dose for 5 days in 6 mice. In kind it is functional.
The test system of test [12] is Mus musculus. The test can be described thus: Survivors after the treatment with 12.5 mg/kg dose for 5 days in 6 mice. It counts as functional.
In test [13] the test system is Mus musculus. The test can be described thus: Survivors after the treatment with 200 mg/kg dose for 5 days in 6 mice. In kind it is functional.
The test system of test [14] is Mus musculus. Nature of the test: Survivors after the treatment with 25 mg/kg dose for 5 days in 6 mice. It counts as functional.
Test [15] concerns Mus musculus. Nature of the test: Survivors after the treatment with 50 mg/kg dose for 5 days in 6 mice. In kind it is functional.

Structures are written as SMILES.

For `CC(O)[C@H]1O[C@@H](n2cnc3c(S)ncnc32)[C@H](O)[C@@H]1O` (stereo not given in full), the T/C stood at 148% in the test with L1210 [1]; 146% in the test on L1210 [2]; 107% in the test with L1210 [3]; 116% in the test on L1210 [4]; 142% in the test on L1210 [5]. Besides, the Average weight change in the test with Mus musculus [6] is -3.6; in the test on Mus musculus [7], -1; in the test on Mus musculus [8] it was -4.4; with Mus musculus [9], -1.4; with Mus musculus [10] it was -1.7. Moreover, the Survivors with Mus musculus [11], in the test on Mus musculus [12], with Mus musculus [13], in the test with Mus musculus [14] and with Mus musculus [15] was 6 throughout.

Source of the values: ChEMBL document CHEMBL1122249, “Synthesis of hypoxanthine, guanine, and 6-thiopurine nucleosides of 6-deoxy-D-allofuranose” (1983).
